The nature of series [1]: Interconversion studies of solid forms. Type of series: physicochemical. The note with it: EQ in acetone:ethanol (1:1) at 25° C., at least 2 days. As to the method:
Interconversion Studies. Interconversion experiments were performed by making slurries of a solid form in a saturated solvent. The slurries were agitated for at least 2 days at about 25° C. The saturated solution was removed by filtration and the solid was dried in the air.

The nature of series [2]: Hygroscopicity (DVS moisture sorption/desorption) studies. Format: physicochemical. The note with it: for hygroscopicity / XRPD pattern / solid form after full adsorption/desorption cycle: DVS; for hygroscopicity: 0-95% RH; for XRPD pattern / solid form after full adsorption/desorption cycle: 0-95-0% RH; for moisture sorption mass change of the starting mass: RH increased from about 0% to about 95% RH, about 25° C. As to the method: Hygroscopicity studies. The hygroscopicity of various solid forms was studied using a Surface Measurement Systems DVS instrument. Typically a sample size of between about 10-50 mg was loaded into the DVS instrument sample pan and the sample was analyzed on a DVS automated sorption analyzer at about 25° C. The relative humidity was increased in increments of about 10% from about 0% to about 95% RH. The relative humidity was then decreased in a similar manner to accomplish a full adsorption/desorption cycle. The mass was recorded at periodic intervals throughout the experiment.

Series [3] is described as follows: Stability studies of solid forms. Type of series: physicochemical. The settings on record: for Stability: Analysis by XRPD (solid form after stress) / Stability: Appearance: 40° C./75% RH, 4 weeks. Here is the method:
Stability Studies. The stabilities of Forms A, B, C and D were studied by exposing the solid samples to the stress condition of 40° C./75% RH for four weeks. Moreover, the stabilities of Forms A, B, C and D in different solvents were studied by equilibration in different solvents at 40° C. for four weeks. The slurries then were filtered and dried in the air. Solid samples obtained from the stability experiments were analyzed by XRPD and DSC.

The nature of series [4]: Compression studies of solid forms. The note with it: 2000 psi for at least one minute.
Series [5] has as its system PDE4 (from U937 cells). Put plainly: PDE4 (U937 cell-derived) enzyme assay. Format: biochemical, human. The note with it: 1 μM cAMP.
The test system of series [6] is bovine PDE1. Put plainly: PDE1 enzyme assay. Type of series: biochemical.
The target in series [7] is human PDE2 (Homo sapiens, UniProt O00408). Put plainly: PDE2 enzyme assay. Format: biochemical. The settings on record: from Table 1 data.
Series [8] has as its target PDE3 from human platelets (Homo sapiens, UniProt Q14432). Description: PDE3 enzyme assay. Format: biochemical. The note with it: from Table 1 data.
Series [9] deals with PDE5 from human platelets (Homo sapiens, UniProt O76074). Put plainly: PDE5 enzyme assay. Type of series: biochemical. The note with it: from Table 1 data.
The mark [10] stands for this setting: EQ in ethanol at 40° C. for 4 weeks.
The mark [11] stands for this setting: EQ in heptane at 40° C. for 4 weeks.
[12] abbreviates: EQ in toluene at 40° C. for 4 weeks.
Setting [13] is: EQ in water at 40° C. for 4 weeks.

Entries after “also recorded” stand apart in the source; their conditions may differ.

human PDE2, sequence (O00408 whole entry): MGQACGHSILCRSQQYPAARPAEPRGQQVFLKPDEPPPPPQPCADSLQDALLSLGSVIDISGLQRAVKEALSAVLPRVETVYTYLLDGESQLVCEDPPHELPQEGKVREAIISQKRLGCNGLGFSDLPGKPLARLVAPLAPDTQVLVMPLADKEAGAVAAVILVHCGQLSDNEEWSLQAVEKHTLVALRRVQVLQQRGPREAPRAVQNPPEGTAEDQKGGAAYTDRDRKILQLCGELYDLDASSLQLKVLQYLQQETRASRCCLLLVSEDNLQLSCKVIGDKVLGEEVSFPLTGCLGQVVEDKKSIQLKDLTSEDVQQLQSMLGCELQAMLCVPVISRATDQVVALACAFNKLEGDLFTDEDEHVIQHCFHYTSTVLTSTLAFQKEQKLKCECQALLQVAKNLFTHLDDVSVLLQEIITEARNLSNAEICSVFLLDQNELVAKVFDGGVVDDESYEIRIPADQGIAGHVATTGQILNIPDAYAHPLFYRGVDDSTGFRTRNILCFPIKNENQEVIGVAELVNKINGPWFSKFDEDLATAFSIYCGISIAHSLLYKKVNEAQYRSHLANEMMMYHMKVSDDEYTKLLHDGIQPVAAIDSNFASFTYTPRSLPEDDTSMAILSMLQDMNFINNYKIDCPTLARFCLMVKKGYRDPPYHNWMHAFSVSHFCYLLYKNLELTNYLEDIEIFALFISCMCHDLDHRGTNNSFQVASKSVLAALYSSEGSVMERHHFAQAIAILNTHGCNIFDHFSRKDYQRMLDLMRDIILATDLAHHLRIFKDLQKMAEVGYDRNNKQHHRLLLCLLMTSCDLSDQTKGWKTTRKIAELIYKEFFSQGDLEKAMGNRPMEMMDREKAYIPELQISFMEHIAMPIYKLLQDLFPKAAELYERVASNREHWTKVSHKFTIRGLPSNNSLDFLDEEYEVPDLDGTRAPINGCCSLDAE
PDE3 from human platelets, sequence (Q14432 whole entry): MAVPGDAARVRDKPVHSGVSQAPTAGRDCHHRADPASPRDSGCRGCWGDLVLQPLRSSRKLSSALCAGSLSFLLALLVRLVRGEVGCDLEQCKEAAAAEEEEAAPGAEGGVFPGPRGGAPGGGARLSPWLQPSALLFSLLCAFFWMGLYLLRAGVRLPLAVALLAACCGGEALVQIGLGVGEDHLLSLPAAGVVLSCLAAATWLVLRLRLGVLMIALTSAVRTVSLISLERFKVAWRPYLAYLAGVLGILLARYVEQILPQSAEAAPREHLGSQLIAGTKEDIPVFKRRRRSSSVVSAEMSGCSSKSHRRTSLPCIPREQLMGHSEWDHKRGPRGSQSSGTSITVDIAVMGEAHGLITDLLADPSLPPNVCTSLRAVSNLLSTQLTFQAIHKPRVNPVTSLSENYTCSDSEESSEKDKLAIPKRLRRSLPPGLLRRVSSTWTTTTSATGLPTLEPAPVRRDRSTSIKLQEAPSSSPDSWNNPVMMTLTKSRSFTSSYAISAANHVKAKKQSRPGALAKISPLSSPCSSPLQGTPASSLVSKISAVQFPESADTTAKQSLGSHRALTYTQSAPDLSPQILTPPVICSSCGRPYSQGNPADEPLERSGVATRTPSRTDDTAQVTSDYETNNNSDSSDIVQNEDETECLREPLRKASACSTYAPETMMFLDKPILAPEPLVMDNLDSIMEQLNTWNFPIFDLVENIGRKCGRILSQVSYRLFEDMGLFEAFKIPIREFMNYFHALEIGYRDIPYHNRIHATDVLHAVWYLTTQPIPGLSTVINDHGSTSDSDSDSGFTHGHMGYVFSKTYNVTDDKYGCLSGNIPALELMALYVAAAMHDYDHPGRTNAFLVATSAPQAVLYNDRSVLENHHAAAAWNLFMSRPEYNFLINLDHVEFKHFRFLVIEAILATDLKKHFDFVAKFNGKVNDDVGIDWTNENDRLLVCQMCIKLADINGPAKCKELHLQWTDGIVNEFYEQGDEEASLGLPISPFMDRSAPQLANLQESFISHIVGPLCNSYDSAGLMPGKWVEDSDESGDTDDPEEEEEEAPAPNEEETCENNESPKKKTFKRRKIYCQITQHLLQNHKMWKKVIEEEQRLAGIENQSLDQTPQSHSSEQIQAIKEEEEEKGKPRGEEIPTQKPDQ

As for `CCOc1cc(C(CS(C)(=O)=O)N2C(=O)c3cccc(NC(C)=O)c3C2=O)ccc1OC` (single isomer, unassigned; (+)) [Form F, (+)-2-[1-(3-ethoxy-4-methoxyphenyl)-2-methylsulfonylethyl]-4-acetylaminoisoindoline-1,3-dione], in series [1], the “Interconversion: Analysis by XRPD (solid form after equilibration)” value (“Interconversion: Analysis by XRPD” for short) was “stable; also recorded: Form F”. Further, in series [2], the hygroscopicity result was “substantially nonhygroscopic”, the “XRPD pattern / solid form after full adsorption/desorption cycle” value is recorded as “substantially unchanged; also recorded: none of the forms analyzed underwent substantial solid-state transformation” and the “moisture sorption mass change of the starting mass” value (from here on “moisture sorption mass change”) is recorded as “about 0.2%”.

On to `CCOc1cc(C(CS(C)(=O)=O)N2C(=O)c3cccc(NC(C)=O)c3C2=O)ccc1OC` (single isomer, unassigned; (+)) [Form A, (+)-2-[1-(3-ethoxy-4-methoxyphenyl)-2-methylsulfonylethyl]-4-acetylaminoisoindoline-1,3-dione], for which, in series [3], the “Stability: Analysis by XRPD (solid form after stress)” value (“Stability … (solid form after stress)” below) is given as “stable; also recorded: Form A” and the “Stability: Appearance” value is “White solid”. Also, the “Stability: Analysis by XRPD (solid form after equilibration)” value in series [3] (setting [10]) is recorded as “stable; also recorded: Form F”. In addition, the “Stability: Analysis by XRPD (solid form after equilibration)” value in series [3] (setting [11]) is “stable; also recorded: Form A”. Besides, in [3] (setting [12]), the “Stability: Analysis by XRPD (solid form after equilibration)” value is on record as “converts to Form C”. Also, in series [3] (setting [13]), the “Stability: Analysis by XRPD (solid form after equilibration)” value was “stable; also recorded: Form A”. Moreover, the “Interconversion: Analysis by XRPD” value in [1] is “Form B”. Also, in series [2], the hygroscopicity entry is given as “substantially nonhygroscopic”, the “XRPD pattern / solid form after full adsorption/desorption cycle” value is given as “substantially unchanged; also recorded: none of the forms analyzed underwent substantial solid-state transformation” and the “moisture sorption mass change” value is “about 0.4%”. Besides, the “physical stability upon compression (XRPD)” value in [4] was “substantially physically stable”.

For the compound `CCOc1cc(C(CS(C)(=O)=O)N2C(=O)c3cccc(NC(C)=O)c3C2=O)ccc1OC` (single isomer, unassigned; (+)) [Form B, (+)-2-[1-(3-ethoxy-4-methoxyphenyl)-2-methylsulfonylethyl]-4-acetylaminoisoindoline-1,3-dione], in series [3], the “Stability … (solid form after stress)” value is “stable; also recorded: Form B” and the “Stability: Appearance” value is “White solid”. The “Stability: Analysis by XRPD (solid form after equilibration)” value in [3] (setting [10]) was “stable; also recorded: Form B”. The “Stability: Analysis by XRPD (solid form after equilibration)” value in series [3] (setting [11]) is given as “stable; also recorded: Form B”. In series [3] (setting [13]), the “Stability: Analysis by XRPD (solid form after equilibration)” value was “stable; also recorded: Form B”. In series [2], the hygroscopicity result was “substantially nonhygroscopic”, the “XRPD pattern / solid form after full adsorption/desorption cycle” value is “substantially unchanged; also recorded: none of the forms analyzed underwent substantial solid-state transformation” and the “moisture sorption mass change” value is recorded as “about 0.6%”. In [4], the “physical stability upon compression (XRPD)” value is reported as “substantially physically stable”.

As for `CCOc1cc(C(CS(C)(=O)=O)N2C(=O)c3cccc(NC(C)=O)c3C2=O)ccc1OC` (single isomer, unassigned; (+)) [Form C, (+)-2-[1-(3-ethoxy-4-methoxyphenyl)-2-methylsulfonylethyl]-4-acetylaminoisoindoline-1,3-dione], in series [3], the “Stability … (solid form after stress)” value was “stable; also recorded: Form C” and the “Stability: Appearance” value is “Yellow solid”. In series [3] (setting [10]), the “Stability: Analysis by XRPD (solid form after equilibration)” value is reported as “stable; also recorded: Form C”. Moreover, the “Stability: Analysis by XRPD (solid form after equilibration)” value in series [3] (setting [11]) is “stable; also recorded: Form C”. In addition, the “Stability: Analysis by XRPD (solid form after equilibration)” value in series [3] (setting [12]) is “stable; also recorded: Form C”. Further, in series [3] (setting [13]), the “Stability: Analysis by XRPD (solid form after equilibration)” value was “stable; also recorded: Form C”. The “Interconversion: Analysis by XRPD” value in series [1] is recorded as “Form C”. Also, in [2], the hygroscopicity result is “substantially nonhygroscopic”, the “XRPD pattern / solid form after full adsorption/desorption cycle” value is “substantially unchanged; also recorded: none of the forms analyzed underwent substantial solid-state transformation” and the “moisture sorption mass change” value is given as “about 0.5%”. Also, the “physical stability upon compression (XRPD)” value in series [4] is recorded as “substantially physically stable”.

In series [5], `CCOc1cc(C(CS(C)(=O)=O)N2C(=O)c3cccc(NC(C)=O)c3C2=O)ccc1OC` (racemic) [Racemic Compound, 2-[1-(3-Ethoxy-4-methoxyphenyl)-2-methylsulfonylethyl]-4-acetylaminoisoindoline-1,3-dione] registered an IC50 of 81.8 nM. Further, in [6] (10 μM), the “PDE1 (% inhib at 10 μM)” value stood at 9%. Moreover, in series [6] (from Table 1 data), the “PDE Specificity Ratio PDE4/PDE1” value is recorded as over 2700 fold. Also, in series [7], the “PDE Specificity Ratio PDE4/PDE2” value is over 800 fold. Further, the “PDE Specificity Ratio PDE4/PDE3” value in series [8] was over 670 fold. Further, the “PDE Specificity Ratio PDE4/PDE5” value in series [9] is over 12000 fold.

Consider `CCOc1cc(C(CS(C)(=O)=O)N2C(=O)c3cccc(NC(C)=O)c3C2=O)ccc1OC` (single isomer, unassigned; (+)) [Form D, (+)-2-[1-(3-ethoxy-4-methoxyphenyl)-2-methylsulfonylethyl]-4-acetylaminoisoindoline-1,3-dione], for which, in series [3], the “Stability … (solid form after stress)” value is recorded as “stable; also recorded: Form D” and the “Stability: Appearance” value was “White solid”. Moreover, the “Stability: Analysis by XRPD (solid form after equilibration)” value in series [3] (setting [10]) is reported as “converts to Form B”. In addition, the “Stability: Analysis by XRPD (solid form after equilibration)” value in series [3] (setting [11]) is on record as “converts to Form B”. In [3] (setting [12]), the “Stability: Analysis by XRPD (solid form after equilibration)” value is “converts to Form C”. The “Stability: Analysis by XRPD (solid form after equilibration)” value in series [3] (setting [13]) is reported as “converts to Form B”. In series [1], the “Interconversion: Analysis by XRPD” value is listed as “Form B”. Besides, in [2], the hygroscopicity entry is “slightly hygroscopic”, the “XRPD pattern / solid form after full adsorption/desorption cycle” value was “substantially unchanged; also recorded: none of the forms analyzed underwent substantial solid-state transformation” and the “moisture sorption mass change” value was “about 1.5%”. Besides, the “physical stability upon compression (XRPD)” value in series [4] is given as “substantially physically stable”.

In the case of `CCOc1cc(C(CS(C)(=O)=O)N2C(=O)c3cccc(NC(C)=O)c3C2=O)ccc1OC` (single isomer, unassigned; (+)) [Form E, (+)-2-[1-(3-ethoxy-4-methoxyphenyl)-2-methylsulfonylethyl]-4-acetylaminoisoindoline-1,3-dione], the “Interconversion: Analysis by XRPD” value in series [1] is recorded as “Form B”. In [2], the hygroscopicity result is given as “hygroscopic”, the “XRPD pattern / solid form after full adsorption/desorption cycle” value is reported as “substantially unchanged; also recorded: none of the forms analyzed underwent substantial solid-state transformation” and the “moisture sorption mass change” value is on record as “about 5.1%”.

For `CCOc1cc(C(CS(C)(=O)=O)N2C(=O)c3cccc(NC(C)=O)c3C2=O)ccc1OC` (single isomer, unassigned; (+)) [Form G, (+)-2-[1-(3-ethoxy-4-methoxyphenyl)-2-methylsulfonylethyl]-4-acetylaminoisoindoline-1,3-dione], the “Interconversion: Analysis by XRPD” value in [1] was “converts to Form B”. Besides, in [2], the hygroscopicity entry is recorded as “substantially nonhygroscopic”, the “XRPD pattern / solid form after full adsorption/desorption cycle” value is reported as “substantially unchanged; also recorded: none of the forms analyzed underwent substantial solid-state transformation” and the “moisture sorption mass change” value was “about 0.4%”.

By IC50 is commonly meant the concentration that inhibits the measured activity by half. Low readings indicate greater potency, high ones weaker potency.

The record behind these values is patent publication US8629173B2, “Solid forms comprising (+)-2-[1-(3-ethoxy-4-methoxyphenyl)-2-methylsulfonylethyl]-4-acetylaminoisoindoline-1,3-dione, compositions thereof, and uses thereof” (Celgene Corporation, priority 2002, dated 2014).
